Reference: patent publication US20140303092A1 (CHIMERIX, INC., priority 2011, published 2014)

Assay: Study HDP-CDV-201: safety and tolerability (adverse events, laboratory abnormalities, discontinuations)
Type: in vivo, human (adult allogeneic HSCT recipients)
Description: Clinical Studies of HDP-CDV were performed and described in detail in the following Examples. For example, HDP-CDV-201 is a placebo-controlled, dose-escalating trial in HSCT CMV (R+) recipients, evaluating the ability of HDP-CDV to prevent or control CMV infection was carried out. Five cohorts were established in which participants or subjects received either placebo or the HDP-CDV orally, in doses ranging from 40 mg weekly (QW) to 200 mg twice weekly (BIW). Subjects who were post-HSCT were enrolled at the time of engraftment and randomized to HDP-CDV or placebo (3 to 1 ratio) and received blinded therapy until approximately 100 day post-transplantation. HDP-CDV doses were 40 mg QW, 100 mg QW, 200 mg QW, 200 mg BIW and 100 mg BIW. Escalation to the next dose was decided by the data monitoring committee after review of the safety data from the previous Cohort. Subjects who developed CMV disease or CMV infection requiring pre-emptive therapy with local standard of care were discontinued from blinded therapy and followed for 4 weeks. Subjects who completed treatment with blinded therapy were followed for 8 weeks post-therapy.
Data from Study HDP-CDV-201 also provided characterization of the safety and tolerability profile of HDP-CDV when administered for the prevention or control of CMV infection in high risk (R^+) post-HSCT adult subjects.
The Safety population (SAFETY) included all randomized subjects who took at least one dose of study treatment. This population was used to summarize safety outcomes based on the treatment actually received, in cases where a subject was treated contrary to the randomization schedule.
The safety and tolerability profile of HDP-CDV, including subject demographics and Baseline characteristics; the AE profile; and laboratory abnormalities of interest were analyzed in the cohorts followed in this investigation.
Subjects completing the treatment period received a full course of study medication; those completing the entire study attended visits through 8 weeks of follow up. Subjects who discontinued treatment may have done so for protocol specified reasons (e.g. development of clinically significant CMV infection requiring preemptive treatment with excluded anti-CMV medications) or for other reasons (e.g., withdrawal, adverse events, loss to follow-up). The disposition of subjects in Study HDP-CDV-201 during the double-blind, placebo-controlled treatment period (through Week 11) is listed by dosing Cohort in TABLE 23.
Adverse events were examined by severity to ensure that all safety signals were identified in this study population. Because of the frequency of events in HSCT recipients, particular attention was given to evaluation of Grade 3 […], 4 (severe), and 5 (fatal) adverse events.
Only those preferred terms for which at least one Grade 3 or higher event was experienced in any treatment group are listed. Cytomegalovirus-related AEs are excluded from this analysis.
HDP-CDV is a lipid conjugate of CDV. Because CDV is known to have adverse effects on renal function and bone marrow, decreased GFR and persistent neutropenia were identified as AEs of special interest. Key renal and hematological (TABLE 30) laboratory parameters were measured and listed below by Study HDP-CDV-201 treatment groups. TABLE 30 includes abnormal levels of serum creatinine, neutrophils, platelets, WBCs, and hemoglobin and includes data at Screening and during the treatment period.
A common metric for unit based dosing of medications is by weight (mg/kg). When the distribution of weights was examined for all subjects participating in the study, the median was 78 kg and the lower 25th percentile weight was approximately 65 kg, which translates to a cut-off of ˜3 mg/kg for a 200 mg total weekly dose. Based upon this approach, a cut-off of 3 mg/kg was used to assess the frequency of diarrhea and associated GI AEs reported for the subjects in Cohorts 3 or 4a (TABLE 40).

CCCCCCCCCCCCCCCCOCCCOP(=O)(O)COC(CO)Cn1ccc(N)nc1=O (stereo not drawn) [HDP-CDV]
17 (34.0%): TEAE Nausea, Frequency (100 mg BIW)
3 (11.1%): TEAE Arthralgias, Frequency (100 mg QW) | TEAE Diarrhea, Grade 2 (100 mg QW) | TEAE Fatigue, Frequency (100 mg QW)
0: TEAE Hypokalaemia, Grade 4 (100 mg BIW) | TEAE Hypokalaemia, Grade 5 (100 mg BIW) | TEAE Hyponatraemia, Grade 2 (100 mg BIW) | TEAE Hyponatraemia, Grade 3 (100 mg BIW) | TEAE Hyponatraemia, Grade 4 (100 mg BIW) | TEAE Hyponatraemia, Grade 5 (100 mg BIW) | TEAE LFT Abnormal, Grade 3 (100 mg BIW) | TEAE LFT Abnormal, Grade 4 (100 mg BIW) | TEAE LFT Abnormal, Grade 5 (100 mg BIW) | TEAE Leukocytosis, Grade 2 (100 mg BIW) | TEAE Leukocytosis, Grade 4 (100 mg BIW) | TEAE Leukocytosis, Grade 5 (100 mg BIW) | TEAE Nausea, Grade 4 (100 mg BIW) | TEAE Nausea, Grade 5 (100 mg BIW) | TEAE Neutropenia, Grade 5 (100 mg BIW) | TEAE Pneumonia, Grade 4 (100 mg BIW) | TEAE Pyrexia, Grade 4 (100 mg BIW) | TEAE Pyrexia, Grade 5 (100 mg BIW) | TEAE Renal Failure, Grade 5 (100 mg BIW) | TEAE Staphylococcal Bacteremia, Grade 4 (100 mg BIW) | TEAE Staphylococcal Bacteremia, Grade 5 (100 mg BIW) | TEAE Thrombocytopenia, Grade 5 (100 mg BIW) | TEAE Vomiting, Grade 4 (100 mg BIW) | TEAE Vomiting, Grade 5 (100 mg BIW) | TEAE ALT increased, Grade 2 (100 mg QW) | TEAE ALT increased, Grade 4 (100 mg QW) | TEAE ALT increased, Grade 5 (100 mg QW) | TEAE AML, Recurrent, Frequency (100 mg QW) | TEAE AML, Recurrent, Grade 2 (100 mg QW) | TEAE AML, Recurrent, Grade 3 (100 mg QW) | TEAE AML, Recurrent, Grade 4 (100 mg QW) | TEAE AML, Recurrent, Grade 5 (100 mg QW) | TEAE AST increased, Grade 3 (100 mg QW) | TEAE AST increased, Grade 4 (100 mg QW) | TEAE AST increased, Grade 5 (100 mg QW) | TEAE Abdominal pain, Grade 2 (100 mg QW) | TEAE Abdominal pain, Grade 4 (100 mg QW) | TEAE Abdominal pain, Grade 5 (100 mg QW) | TEAE Arthralgias, Grade 2 (100 mg QW) | TEAE Arthralgias, Grade 3 (100 mg QW) | TEAE Arthralgias, Grade 4 (100 mg QW) | TEAE Arthralgias, Grade 5 (100 mg QW) | TEAE Back Pain, Grade 2 (100 mg QW) | TEAE Back Pain, Grade 3 (100 mg QW) | TEAE Back Pain, Grade 4 (100 mg QW) | TEAE Back Pain, Grade 5 (100 mg QW) | TEAE Decreased appetite, Grade 3 (100 mg QW) | TEAE Decreased appetite, Grade 4 (100 mg QW) | TEAE Decreased appetite, Grade 5 (100 mg QW) | TEAE Diarrhea, Grade 3 (100 mg QW) | TEAE Diarrhea, Grade 4 (100 mg QW) | TEAE Diarrhea, Grade 5 (100 mg QW) | TEAE Fatigue, Grade 2 (100 mg QW) | TEAE Fatigue, Grade 3 (100 mg QW) | TEAE Fatigue, Grade 4 (100 mg QW) | TEAE Fatigue, Grade 5 (100 mg QW)
7 (25.5%): TEAE Acute GVHD, Frequency (100 mg QW)
26 (52.0%): Subjects Reporting Diarrhea as an AE (100 mg BIW, n = 50)
6 (12.0%): TEAE Staphylococcal Bacteremia, Frequency (100 mg BIW)
1 (2.0%): TEAE Hyponatraemia, Frequency (100 mg BIW) | TEAE LFT Abnormal, Grade 2 (100 mg BIW) | TEAE Leukocytosis, Grade 3 (100 mg BIW) | TEAE Pneumonia, Grade 2 (100 mg BIW) | TEAE Pneumonia, Grade 5 (100 mg BIW) | TEAE Renal Failure, Grade 2 (100 mg BIW) | TEAE Renal Failure, Grade 3 (100 mg BIW) | TEAE Renal Failure, Grade 4 (100 mg BIW) | TEAE Thrombocytopenia, Grade 2 (100 mg BIW) | TEAE Thrombocytopenia, Grade 3 (100 mg BIW)
1 (3.7%): TEAE ALT increased, Frequency (100 mg QW) | TEAE ALT increased, Grade 3 (100 mg QW) | TEAE AST increased, Frequency (100 mg QW) | TEAE AST increased, Grade 2 (100 mg QW) | TEAE Abdominal pain, Grade 3 (100 mg QW)
8 (16.0%): TEAE Vomiting, Grade 2 (100 mg BIW)
8 (29.6%): TEAE Diarrhea, Frequency (100 mg QW)
5 (10.0%): TEAE Neutropenia, Grade 3 (100 mg BIW) | TEAE Pneumonia, Frequency (100 mg BIW) | TEAE Renal Failure, Frequency (100 mg BIW)
2 (4.0%): TEAE Hypokalaemia, Grade 3 (100 mg BIW) | TEAE LFT Abnormal, Frequency (100 mg BIW) | TEAE Leukocytosis, Frequency (100 mg BIW) | TEAE Nausea, Grade 3 (100 mg BIW) | TEAE Neutropenia, Grade 2 (100 mg BIW) | TEAE Neutropenia, Grade 4 (100 mg BIW) | TEAE Staphylococcal Bacteremia, Grade 2 (100 mg BIW) | TEAE Thrombocytopenia, Grade 4 (100 mg BIW) | TEAE Vomiting, Grade 3 (100 mg BIW)
17 out of 50: subjects who interrupted HDP-CDV due to an adverse event (100 mg BIW Cohort)
2 (7.4%): TEAE Abdominal pain, Frequency (100 mg QW) | TEAE Back Pain, Frequency (100 mg QW) | TEAE Decreased appetite, Grade 2 (100 mg QW)
4 (8.0%): TEAE Pyrexia, Grade 2 (100 mg BIW)
8 (16.0%) Subject n (%): Discontinuation: Adverse event (100 mg BIW, active treatment period through Week 11)
72%: subjects requiring treatment with steroids during the study (100 mg BIW)
10 (20.0%): TEAE Neutropenia, Frequency (100 mg BIW) | TEAE Pyrexia, Frequency (100 mg BIW)
22 (44.0%): TEAE Vomiting, Frequency (100 mg BIW)
4 (8.0%) Subject n (%): Discontinuation: Death (100 mg BIW, active treatment period)
9 (18.0%): TEAE Nausea, Grade 2 (100 mg BIW)
3 (6.0%): TEAE Pneumonia, Grade 3 (100 mg BIW) | TEAE Staphylococcal Bacteremia, Grade 3 (100 mg BIW)
5 (18.5%): TEAE Decreased appetite, Frequency (100 mg QW)
1 (2%): TEAE Pyrexia, Grade 3 (100 mg BIW)
2 (7.3%): TEAE Acute GVHD, Grade 3 (100 mg QW)
4 (14.8%): TEAE Acute GVHD, Grade 2 (100 mg QW)
7 (14.0%): TEAE Thrombocytopenia, Frequency (100 mg BIW)
